Source: patent publication US9744171B2, “Positive allosteric modulators for melanocortin receptors” (Vanderbilt University, priority 2012, dated 2017)

Assay: High fat diet-induced weight gain in mice, osmotic minipump treatment
Format: in vivo
Method: FIG. 6 provides a bar graph showing a reduction in high fat diet-induced weight gain in mice by treatment with VU0055768. Wild type 12 week old male C57BL/6J mice were placed on a high fat diet for 5 days. Mice were then implanted subcutaneously with Alzet csmotic minipumps filled with vehicle (25% DMSO, 25% saline, 50% EtOH; n=6) or VU0055768 (25% compound in DMSO, 25% saline, 50% EtOH, n=5) so as to deliver 2.5 mg/kg/day of VU0055768. Mice were maintained on ad libitum access to water and high fat chow, and body weights were measured at the end of an additional 9 days. Bars indicate the mean and standard error of the data, and show a greater than 50% reduction in weight gain as a result of treatment with VU0055768
Eleven 12 weeks old Wt C57 mice were placed on high fat diet for 5 days. Osmotic pumps were filled with vehicle (25% DMSO, 25% saline, 50% EtOH) or VU0055768 (25% compound in DMSO, 25% saline, 50% EtOH) as to deliver 2.5 mg/kg/day, and were then inserted subcutaneously (6 vehicle, 5 compound) into the mice. The mice were fed ad-libidum with high fat diet. Mouse and food weight was measured daily. Statistical analysis of the results was t-test.

With NCCc1c(-c2ccccc2)n(-c2ccccc2)c2ccccc12 [VU0055768] the “reduction in weight gain” value (C57BL/6J mice on high fat diet, 2.5 mg/kg/day subcutaneous osmotic minipump, body weights after additional 9 days, vs vehicle) was “greater than 50%” and the weight gain (Wt C57 mice on high fat diet, 2.5 mg/kg/day subcutaneous osmotic pump, t-test vs vehicle) was “significantly reduced weight gain”.
